Experimental data taken from patent US20190133968A1, “Applications of benzophenones in preparation of drug” (SHANXI MEDICAL UNIVERSITY, priority 2016, published 2019).

Tested on: DN rats
Assay: type II diabetic nephropathy (DN) rat model (high-sugar high-fat diet + streptozocin)
Format: in vivo, SD (Sprague Dawley) rats
Conditions: for BUN / CREA / Glycated hemoglobin / Urinary protein / mALB (microalbumin in urine) / ICAM-1 / IL-1β / IL-6 / MDA / NF-κB / SOD / T-AOC / TGF-β1 / TNF-α / VCAM-1 / Glucose (GLU) / HDL-C / LDL-C / TC / TG / UA / Kidney coefficient: gavage, 6 weeks; for Urinary protein / mALB (microalbumin in urine): 6-hour urine; for ICAM-1 / IL-1β / IL-6 / MDA / NF-κB / SOD / T-AOC / TGF-β1 / TNF-α / VCAM-1: renal tissues; for Glucose (GLU) / HDL-C / LDL-C / TC / TG / UA: serum; for Kidney coefficient: weights of two kidneys/body weight
Method: The solid dispersions are prepared through a solvent method, comprising steps of: respectively precisely weighing LM49, PVPK30 and tween80 with a weight ratio of 1:5:1, and A8, PVPK30 and tween80 with a weight ratio of 1:4:1; dissolving with appropriate absolute ethyl alcohol, continuously stirring, and uniformly mixing; placing on the water bath at 60° C., evaporating and removing the absolute ethyl alcohol, and obtaining a viscous material; placing in the freezer at −20° C., and freezing for 2 hours; taking out from the freezer, then placing in the vacuum drying oven, and drying for 24 hours; after becoming embrittlement, smashing and sieving with a sieve of 80 meshes, and then placing in the dryer for storage.
The healthy adult male SD rats (having a weight of 180-220 g) are fed with the high-sugar and high-fat diet for 4 weeks; the rats are fasting overnight; and streptozocin (STZ) of 40 mg/kg is intraperitoneally injected into the rats. The rats of normal control group are injected with the sodium citrate buffer of same volume; 72 hours later, the rats are fasting for 12 hours. […] During the administration period, the successfully established model rats are still fed with the high-sugar and high-fat diet, while the rats of the normal control group are fed with the normal diet.
After administration for 6 weeks, 6-hour urine of the rats is collected with the metabolism cage.
The rats are fasting overnight and anesthetized intraperitoneally, then the abdominal aorta blood thereof is drawn for measuring the related indexes. The two kidneys of each rat are washed with the normal saline; weights of the kidneys are recorded; and the kidney coefficient (weights of two kidneys/body weight) is calculated. The renal tissues (comprising the glomerulus and renal tubules) at the same part of the left kidney are cut lengthwise and immersed in the 10% neutral formalin for pathomorphology analysis, and the other parts of the left kidney are used for biochemical index measurement; the right kidney is used for mechanism research and stored in the freezer at −80° C.
After successfully establishing the model rats, expect the normal control group (ten rats), the remaining rats are randomly divided into eight groups, wherein each group has twelve rats. The eight groups are respectively the model group, the LM49 solid dispersion low-dose group (with the drug concentration of 3 mg/kg), the LM49 solid dispersion medium-dose group (with the drug concentration of 9 mg/kg), the LM49 solid dispersion high-dose group (with the drug concentration of 27 mg/kg), the A8 solid dispersion low-dose group (with the drug concentration of 3 mg/kg), the A8 solid dispersion medium-dose group (with the drug concentration of 9 mg/kg), the A8 solid dispersion high-dose group (with the drug concentration of 27 mg/kg), and the captopril control group (with the drug concentration of 15 mg/kg).
Administration Way: By Gavage.
The rats of the normal control group and the model group are administrated with the normal saline of 1.0 ml/100 g; the rats of the positive control group, the LM49 solid dispersion high-dose, medium-dose and low-dose groups and the A8 solid dispersion high-dose, medium-dose and low-dose groups are respectively administrated with the drugs of different concentrations, and the administration volume is 1.0 ml/100 g.
The solid dispersions are dissolved by the normal saline; and the rats of the positive control group are administrated with the 0.5% CMC-Na (sodium carboxymethyl cellulose) suspension.
The rats are administrated seven days a week, for totally six weeks.
The IBM SPSS Statistics 20 software is used for data processing, and the data is represented in x±s. The one-way analysis of variance (ANOVA) is adopted for comparison among the groups. According to the homogeneity test results of variance, if the variance is equal, the LSD (least significant difference) test is adopted; if the variance is unequal, the Dunnett's T3 test is adopted. […]

SMILES: O=C(c1cc(Br)ccc1O)c1cc(O)c(O)cc1Br [LM49, 2,5′-dibromo-4,5,2′-trihydroxyldiphenylmethanone]
- BUN (DN rats, high-dose 27 mg/kg): 10.66 ± 2.52 mmol/L
- CREA (DN rats, high-dose 27 mg/kg): 55.12 ± 4.05 µmol/L
- Glycated hemoglobin (DN rats, high-dose 27 mg/kg): 8.10 ± 1.50%
- Urinary protein (DN rats, high-dose 27 mg/kg): 2.82 ± 0.54^□□▴◯● mg/6 h
- mALB (microalbumin in urine) (DN rats, high-dose 27 mg/kg): 52.22 ± 7.46^□□▴▴ μg/6 h
- ICAM-1 (DN rats, high-dose 27 mg/kg): 282.88 ± 59.07 pg/mgprog
- IL-1β (DN rats, high-dose 27 mg/kg): 121.69 ± 16.12 pg/mgprog
- IL-6 (DN rats, high-dose 27 mg/kg): 119.09 ± 11.51^□ pg/mgprog
- MDA (DN rats, high-dose 27 mg/kg): 1.16 ± 0.19 nmol/mgprog
- NF-κB (DN rats, high-dose 27 mg/kg): 215.39 ± 43.61^□□▴▴◯◯ pg/mgprog
- SOD (DN rats, high-dose 27 mg/kg): 4.06 ± 0.78 U/mgprog
- T-AOC (DN rats, high-dose 27 mg/kg): 1.37 ± 0.31 U/mgprog
- TGF-β1 (DN rats, high-dose 27 mg/kg): 30.58 ± 5.83^□□▴▴ pg/mgprot
- TNF-α (DN rats, high-dose 27 mg/kg): 279.29 ± 41.89^□ pg/mgprog
- VCAM-1 (DN rats, high-dose 27 mg/kg): 26.85 ± 5.63 pg/mgprog
- Glucose (GLU) (DN rats, high-dose 27 mg/kg): 10.73 ± 2.89^□□▴◯ mmol/L
- HDL-C (DN rats, high-dose 27 mg/kg): 1.17 ± 0.24 mmol/L
- LDL-C (DN rats, high-dose 27 mg/kg): 1.61 ± 0.54^□□ mmol/L
- TC (DN rats, high-dose 27 mg/kg): 3.00 ± 0.79^□□ mmol/L
- TG (DN rats, high-dose 27 mg/kg): 0.54 ± 0.13^□□ mmol/L
- UA (DN rats, high-dose 27 mg/kg): 29.41 ± 7.23^□□●● μmol/L
- Kidney coefficient (DN rats, high-dose 27 mg/kg): 1.00 ± 0.09%
- lesions of the renal tissues (DN rats, kidney pathology (HE, Masson staining)): effectively reduce the lesions of the renal tissues
- BUN (DN rats, low-dose 3 mg/kg): 11.59 ± 2.78 mmol/L
- CREA (DN rats, low-dose 3 mg/kg): 54.11 ± 3.50 µmol/L
- Glycated hemoglobin (DN rats, low-dose 3 mg/kg): 9.01 ± 0.61%
- Urinary protein (DN rats, low-dose 3 mg/kg): 5.81 ± 1.42^□□ mg/6 h
- mALB (microalbumin in urine) (DN rats, low-dose 3 mg/kg): 143.47 ± 33.28^□□●● μg/6 h
- ICAM-1 (DN rats, low-dose 3 mg/kg): 384.02 ± 100.59 pg/mgprog
- IL-1β (DN rats, low-dose 3 mg/kg): 158.77 ± 43.38 pg/mgprog
- IL-6 (DN rats, low-dose 3 mg/kg): 195.42 ± 2.34 pg/mgprog
- MDA (DN rats, low-dose 3 mg/kg): 1.65 ± 0.25 nmol/mgprog
- NF-κB (DN rats, low-dose 3 mg/kg): 2415.59 ± 515.30 pg/mgprog
- SOD (DN rats, low-dose 3 mg/kg): 5.66 ± 1.87 U/mgprog
- T-AOC (DN rats, low-dose 3 mg/kg): 1.52 ± 0.58 U/mgprog
- TGF-β1 (DN rats, low-dose 3 mg/kg): 100.46 ± 25.56 pg/mgprot
- TNF-α (DN rats, low-dose 3 mg/kg): 573.35 ± 150.75 pg/mgprog
- VCAM-1 (DN rats, low-dose 3 mg/kg): 39.34 ± 10.56 pg/mgprog
- Glucose (GLU) (DN rats, low-dose 3 mg/kg): 19.94 ± 6.09^□□ mmol/L
- HDL-C (DN rats, low-dose 3 mg/kg): 1.27 ± 0.12 mmol/L
- LDL-C (DN rats, low-dose 3 mg/kg): 1.90 ± 0.54^□□ mmol/L
- TC (DN rats, low-dose 3 mg/kg): 3.28 ± 0.59^□□ mmol/L
- TG (DN rats, low-dose 3 mg/kg): 0.38 ± 0.10^□□ mmol/L
- UA (DN rats, low-dose 3 mg/kg): 26.01 ± 6.54^□□●● μmol/L
- Kidney coefficient (DN rats, low-dose 3 mg/kg): 1.08 ± 0.09%
- BUN (DN rats, medium-dose 9 mg/kg): 10.97 ± 3.01 mmol/L
- CREA (DN rats, medium-dose 9 mg/kg): 55.25 ± 1.01 µmol/L
- Glycated hemoglobin (DN rats, medium-dose 9 mg/kg): 8.59 ± 0.85%
- Urinary protein (DN rats, medium-dose 9 mg/kg): 5.29 ± 0.61^□□ mg/6 h
- mALB (microalbumin in urine) (DN rats, medium-dose 9 mg/kg): 125.38 ± 23.67^□□● μg/6 h
- ICAM-1 (DN rats, medium-dose 9 mg/kg): 334.79 ± 55.46 pg/mgprog
- IL-1β (DN rats, medium-dose 9 mg/kg): 146.20 ± 16.12 pg/mgprog
- IL-6 (DN rats, medium-dose 9 mg/kg): 168.44 ± 30.33 pg/mgprog
- MDA (DN rats, medium-dose 9 mg/kg): 1.92 ± 0.34 nmol/mgprog
- NF-κB (DN rats, medium-dose 9 mg/kg): 1017.81 ± 239.12^□▴●● pg/mgprog
- SOD (DN rats, medium-dose 9 mg/kg): 5.33 ± 1.01 U/mgprog
- T-AOC (DN rats, medium-dose 9 mg/kg): 1.93 ± 0.43 U/mgprog
- TGF-β1 (DN rats, medium-dose 9 mg/kg): 53.60 ± 11.60^□● pg/mgprot
- TNF-α (DN rats, medium-dose 9 mg/kg): 436.04 ± 84.54 pg/mgprog
- VCAM-1 (DN rats, medium-dose 9 mg/kg): 34.76 ± 5.04 pg/mgprog
- Glucose (GLU) (DN rats, medium-dose 9 mg/kg): 18.58 ± 2.71^□□ mmol/L
- HDL-C (DN rats, medium-dose 9 mg/kg): 1.16 ± 0.21 mmol/L
- LDL-C (DN rats, medium-dose 9 mg/kg): 1.51 ± 0.48^□□ mmol/L
- TC (DN rats, medium-dose 9 mg/kg): 2.71 ± 0.49^□□ mmol/L
- TG (DN rats, medium-dose 9 mg/kg): 0.30 ± 0.11^□□ mmol/L
- UA (DN rats, medium-dose 9 mg/kg): 25.63 ± 5.83^□□●● μmol/L
- Kidney coefficient (DN rats, medium-dose 9 mg/kg): 1.09 ± 0.14%
- effect on resisting the DN of rats (overall summary in words): obvious effect on resisting the DN of rats
